Legend:
Type in all cases: in vivo
Scirpus juncoides = assay: Test Example 3 paddy field treatment; conditions: Table 6, paddy field treatment, active ingredient 1 kg per hectare, 21st day after dropping, index 0-5
How it was run: (§1)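 Weed seeds sown in puddled paddy soil under 4 cm water, with two-leaf Koshihikari rice transplanted; 10 days later a wettable powder was applied to the water surface at 1 kg active ingredient/ha. Scored 21 days after application on a 0–5 scale (0 = <10%, 5 = ≥90% herbicidal effect or phytotoxicity).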

Echinochloa crusgalli = assay: Test Example 3 paddy field treatment; conditions: Table 6, paddy field treatment, active ingredient 1 kg per hectare, 21st day after dropping, index 0-5
How it was run: as §1

Ammannia multiflora = assay: Test Example 3 paddy field treatment; conditions: Table 6, paddy field treatment, active ingredient 1 kg per hectare, 21st day after dropping, index 0-5
How it was run: as §1

Monochoria vaginalis = assay: Test Example 3 paddy field treatment; conditions: Table 6, paddy field treatment, active ingredient 1 kg per hectare, 21st day after dropping, index 0-5
How it was run: as §1

Stellaria media [1] = assay: Test Example 1 upland field foliage treatment; conditions: Table 4, upland field foliage treatment, index 0-5
How it was run: (§2)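 Seeds sown in upland soil in pots and covered with about 1 cm soil; on day 14 after sowing, diluted wettable powder applied uniformly to leaves at 1 kg active ingredient per hectare. Weed control or crop phytotoxicity scored visually 21 days after application on a 0–5 scale (5 = ≥90%, 0 = <10%).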

Chenopodium album [2] = assay: Test Example 1 upland field foliage treatment; conditions: Table 4, upland field foliage treatment, index 0-5
How it was run: as §2

Setaria viridis [3] = assay: Test Example 1 upland field foliage treatment; conditions: Table 4, upland field foliage treatment, index 0-5
How it was run: as §2

Digitaria adscendens [4] = assay: Test Example 1 upland field foliage treatment; conditions: Table 4, upland field foliage treatment, index 0-5
How it was run: as §2

Rice (Oryza sativa) = assay: Test Example 3 paddy field treatment, crop phytotoxicity; conditions: Table 6, paddy field treatment, transplanted rice, active ingredient 1 kg per hectare, 21st day after dropping, index 0-5
How it was run: as §1

[5] = tested on: wheat (Triticum aestivum); assay: Test Example 2 upland soil treatment, crop phytotoxicity; conditions: Table 5, upland soil treatment, index 0-5
How it was run: (§3)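 Score 0–5 read at day 21 (5 = ≥90% effect or phytotoxicity, 0 = <10%). Wettable powder diluted in water to 1 kg a.i./ha, applied uniformly to upland soil one day after sowing; seeds covered with ~1 cm soil.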

soybean (Glycine max) [6] = assay: as above; conditions: Table 5, upland soil treatment, index 0-5
How it was run: as §3

[7] = tested on: wheat (Triticum aestivum); assay: Test Example 1 upland field foliage treatment, crop phytotoxicity; conditions: Table 4, upland field foliage treatment, index 0-5
How it was run: as §2

soybean (Glycine max) [8] = assay: as above; conditions: Table 4, upland field foliage treatment, index 0-5
How it was run: as §2

Stellaria media [9] = assay: Test Example 2 upland soil treatment; conditions: Table 5, upland soil treatment, index 0-5
How it was run: as §3

Chenopodium album [10] = assay: Test Example 2 upland soil treatment; conditions: Table 5, upland soil treatment, index 0-5
How it was run: as §3

Setaria viridis [11] = assay: Test Example 2 upland soil treatment; conditions: Table 5, upland soil treatment, index 0-5
How it was run: as §3

Digitaria adscendens [12] = assay: Test Example 2 upland soil treatment; conditions: Table 5, upland soil treatment, index 0-5
How it was run: as §3

Compound	Herbicidal activity SJ (Scirpus juncoides)	Herbicidal activity EC (Echinochloa crusgalli)	Herbicidal activity AM (Ammannia multiflora)	Herbicidal activity MV (Monochoria vaginalis)	Herbicidal activity SM: Stellaria media (Stellaria media [1])	Herbicidal activity CA: Chenopodium album (Chenopodium album [2])	Herbicidal activity SV: Setaria viridis (Setaria viridis [3])	Herbicidal activity DA: Digitaria adscendens (Digitaria adscendens [4])	Herbicidal activity (phytotoxicity) OS (Rice (Oryza sativa))	Herbicidal activity (phytotoxicity) TA: Wheat (Triticum aestivum) [5]	Herbicidal activity (phytotoxicity) GM: Soybean (Glycine max) (soybean (Glycine max) [6])	Herbicidal activity (phytotoxicity) TA: Wheat (Triticum aestivum) [7]	Herbicidal activity (phytotoxicity) GM: Soybean (Glycine max) (soybean (Glycine max) [8])	Herbicidal activity SM: Stellaria media (Stellaria media [9])	Herbicidal activity CA: Chenopodium album (Chenopodium album [10])	Herbicidal activity SV: Setaria viridis (Setaria viridis [11])	Herbicidal activity DA: Digitaria adscendens (Digitaria adscendens [12])
CON=C(Cn1cc(C)c(-c2ccccc2)n1)C(=O)N1CCOCC1 [Compound 120]	3 (herbicidal effect of not less than 50% and less than 70%, or phytotoxicity of 50% or more and less than 70%)	3 (herbicidal effect of not less than 50% and less than 70%, or phytotoxicity of 50% or more and less than 70%)	4 (herbicidal effect of not less than 70% and less than 90%, or phytotoxicity of 70% or more and less than 90%)	4 (herbicidal effect of not less than 70% and less than 90%, or phytotoxicity of 70% or more and less than 90%)	4 (herbicidal effect of not less than 70% and less than 90%, or phytotoxicity of 70% or more and less than 90%)	5 (herbicidal effect of not less than 90%, or phytotoxicity of 90% or more)	4 (herbicidal effect of not less than 70% and less than 90%, or phytotoxicity of 70% or more and less than 90%)	4 (herbicidal effect of not less than 70% and less than 90%, or phytotoxicity of 70% or more and less than 90%)	0 (herbicidal effect of not less than 0% and less than 10%, or phytotoxicity of 0% or more and less than 10%)	0 (herbicidal effect of not less than 0% and less than 10%, or phytotoxicity of 0% or more and less than 10%)	0 (herbicidal effect of not less than 0% and less than 10%, or phytotoxicity of 0% or more and less than 10%)	0 (herbicidal effect of not less than 0% and less than 10%, or phytotoxicity of 0% or more and less than 10%)	0 (herbicidal effect of not less than 0% and less than 10%, or phytotoxicity of 0% or more and less than 10%)	4 (herbicidal effect of not less than 70% and less than 90%, or phytotoxicity of 70% or more and less than 90%)	4 (herbicidal effect of not less than 70% and less than 90%, or phytotoxicity of 70% or more and less than 90%)	3 (herbicidal effect of not less than 50% and less than 70%, or phytotoxicity of 50% or more and less than 70%)	4 (herbicidal effect of not less than 70% and less than 90%, or phytotoxicity of 70% or more and less than 90%)
CON=C(Cn1cc(C)c(-c2ccccc2)n1)C(=O)N1CCSCC1 [Compound 122]	3 (herbicidal effect of not less than 50% and less than 70%, or phytotoxicity of 50% or more and less than 70%)	4 (herbicidal effect of not less than 70% and less than 90%, or phytotoxicity of 70% or more and less than 90%)	4 (herbicidal effect of not less than 70% and less than 90%, or phytotoxicity of 70% or more and less than 90%)	4 (herbicidal effect of not less than 70% and less than 90%, or phytotoxicity of 70% or more and less than 90%)	4 (herbicidal effect of not less than 70% and less than 90%, or phytotoxicity of 70% or more and less than 90%)	4 (herbicidal effect of not less than 70% and less than 90%, or phytotoxicity of 70% or more and less than 90%)	4 (herbicidal effect of not less than 70% and less than 90%, or phytotoxicity of 70% or more and less than 90%)	4 (herbicidal effect of not less than 70% and less than 90%, or phytotoxicity of 70% or more and less than 90%)	0 (herbicidal effect of not less than 0% and less than 10%, or phytotoxicity of 0% or more and less than 10%)	0 (herbicidal effect of not less than 0% and less than 10%, or phytotoxicity of 0% or more and less than 10%)	0 (herbicidal effect of not less than 0% and less than 10%, or phytotoxicity of 0% or more and less than 10%)	0 (herbicidal effect of not less than 0% and less than 10%, or phytotoxicity of 0% or more and less than 10%)	0 (herbicidal effect of not less than 0% and less than 10%, or phytotoxicity of 0% or more and less than 10%)	4 (herbicidal effect of not less than 70% and less than 90%, or phytotoxicity of 70% or more and less than 90%)	4 (herbicidal effect of not less than 70% and less than 90%, or phytotoxicity of 70% or more and less than 90%)	3 (herbicidal effect of not less than 50% and less than 70%, or phytotoxicity of 50% or more and less than 70%)	3 (herbicidal effect of not less than 50% and less than 70%, or phytotoxicity of 50% or more and less than 70%)
